Results published in ChEMBL document CHEMBL1141535, “Benzothiazole based inhibitors of p38alpha MAP kinase” (Bioorg Med Chem Lett, 2008).
Values belong to the compound of their own block, whether it stands above or below them.

Tests used:
[1] = biological target: Mitogen-activated protein kinase 14 (Homo sapiens, UniProt Q16539); assay: Inhibition of p38alpha
[2] = tested on: PBMC; assay: Inhibition of LPS-induced TNFalpha production in human PBMC; format: functional, cell-based
[3] = biological target: Proto-oncogene tyrosine-protein kinase Src (Homo sapiens) (UniProt P12931); assay: Inhibition of Src at 10 uM
[4] = biological target: Protein kinase C alpha type (Homo sapiens) (UniProt P17252); assay: Inhibition of PKCalpha at 10 uM
[5] = biological target: Tyrosine-protein kinase ABL1 (Homo sapiens) (UniProt P00519); assay: Inhibition of Abl at 10 uM
[6] = biological target: Phosphorylase b kinase gamma catalytic chain, liver/testis isoform (Homo sapiens) (UniProt P15735); assay: Inhibition of PHKG2 at 10 uM
[7] = biological target: Insulin-like growth factor 1 receptor (Homo sapiens) (UniProt P08069); assay: Inhibition of IGF1R at 10 uM
[8] = Bioavailability in Sprague-Dawley rat at 5 mg/kg, po; format: ADME, organism-based; conditions: in vivo
[9] = biological target: Epidermal growth factor receptor (Homo sapiens) (UniProt P00533); assay: Inhibition of EGFR at 10 uM
[10] = biological target: Fibroblast growth factor receptor 1 (Homo sapiens) (UniProt P11362); assay: Inhibition of FGFR1 at 10 uM
[11] = biological target: RAC-beta serine/threonine-protein kinase (Homo sapiens) (UniProt P31751); assay: Inhibition of Atk2 at 10 uM
[12] = Clearance in Sprague-Dawley rat at 2 mg/kg, iv; format: ADME, organism-based; design: dose 2 mg/kg, route intravenous; conditions: in vivo
[13] = biological target: Casein kinase II subunit alpha (Homo sapiens) (UniProt P68400); assay: Inhibition of CK2-alpha-1 at 10 uM
[14] = biological target: Protein kinase C beta type (Homo sapiens) (UniProt P05771); assay: Inhibition of PKC-beta-2 at 10 uM
[15] = biological target: Glycogen synthase kinase-3 beta (Homo sapiens) (UniProt P49841); assay: Inhibition of GSK3-beta at 10 uM
[16] = biological target: Fibroblast growth factor receptor 2 (Homo sapiens) (UniProt P21802); assay: Inhibition of FGFR2 at 10 uM
[17] = biological target: MAP kinase-activated protein kinase 2 (Homo sapiens) (UniProt P49137); assay: Inhibition of MAPKAP-K2 at 10 uM
[18] = biological target: Mitogen-activated protein kinase 1 (Homo sapiens) (UniProt P28482); assay: Inhibition of ERK2 at 10 uM
[19] = biological target: Tyrosine-protein kinase Lyn (Homo sapiens) (UniProt P07948); assay: Inhibition of Lyn A at 10 uM
[20] = biological target: Cytoplasmic tyrosine-protein kinase BMX (Homo sapiens) (UniProt P51813); assay: Inhibition of Bmx at 10 uM
[21] = biological target: Ephrin type-B receptor 4 (Homo sapiens) (UniProt P54760); assay: Inhibition of EphB4 at 10 uM
[22] = biological target: Serine/threonine-protein kinase Nek2 (Homo sapiens) (UniProt P51955); assay: Inhibition of NEK2 at 10 uM
[23] = biological target: Ribosomal protein S6 kinase alpha-3 (Homo sapiens) (UniProt P51812); assay: Inhibition of RSK2 at 10 uM
[24] = biological target: Serine/threonine-protein kinase Chk1 (Homo sapiens) (UniProt O14757); assay: Inhibition of CHK1 at 10 uM
[25] = Inhibition of PKA at 10 uM
[26] = AUC in Sprague-Dawley rat at 5 mg/kg, po; format: ADME, organism-based; design: dose 5 mg/kg, route oral; conditions: plasma
[27] = biological target: Protein-tyrosine kinase 6 (Homo sapiens) (UniProt Q13882); assay: Inhibition of Brk at 10 uM
[28] = biological target: Tyrosine-protein kinase Blk (Homo sapiens) (UniProt P51451); assay: Inhibition of Blk at 10 uM
[29] = biological target: Serine/threonine-protein kinase Chk2 (Homo sapiens) (UniProt O96017); assay: Inhibition of CHK2 at 10 uM
[30] = biological target: Interleukin-1 receptor-associated kinase 4 (Homo sapiens) (UniProt Q9NWZ3); assay: Inhibition of IRAK4 at 10 uM
[31] = biological target: Calcium/calmodulin-dependent protein kinase type II subunit alpha (Homo sapiens) (UniProt Q9UQM7); assay: Inhibition of CaMK2-alpha at 10 uM
[32] = biological target: Tyrosine-protein kinase Lyn (Homo sapiens) (UniProt P07948); assay: Inhibition of Lyn B at 10 uM
[33] = biological target: Tyrosine-protein kinase Fes/Fps (Homo sapiens) (UniProt P07332); assay: Inhibition of FES at 10 uM
[34] = biological target: Tyrosine-protein kinase Lck (Homo sapiens) (UniProt P06239); assay: Inhibition of Lck at 10 uM
[35] = biological target: MAP kinase-activated protein kinase 3 (Homo sapiens) (UniProt Q16644); assay: Inhibition of MAPKAP-K3 at 10 uM
[36] = biological target: Hepatocyte growth factor receptor (Homo sapiens) (UniProt P08581); assay: Inhibition of cMET at 10 uM
[37] = biological target: Tyrosine-protein kinase Fyn (Homo sapiens) (UniProt P06241); assay: Inhibition of Fyn at 10 uM
[38] = biological target: Protein kinase C delta type (Homo sapiens) (UniProt Q05655); assay: Inhibition of PKCdelta at 10 uM
[39] = biological target: RAC-gamma serine/threonine-protein kinase (Homo sapiens) (UniProt Q9Y243); assay: Inhibition of Atk3 at 10 uM
[40] = biological target: Megakaryocyte-associated tyrosine-protein kinase (Homo sapiens) (UniProt P42679); assay: Inhibition of Hyl at 10 uM
[41] = biological target: Platelet-derived growth factor receptor beta (Homo sapiens) (UniProt P09619); assay: Inhibition of PDGFRbeta at 10 uM
[42] = biological target: Tyrosine-protein kinase Yes (Homo sapiens) (UniProt P07947); assay: Inhibition of Yes at 10 uM
[43] = biological target: Tyrosine-protein kinase CSK (Homo sapiens) (UniProt P41240); assay: Inhibition of Csk at 10 uM
[44] = biological target: Tyrosine-protein kinase HCK (Homo sapiens) (UniProt P08631); assay: Inhibition of Hck at 10 uM
[45] = biological target: Protein kinase C gamma type (Homo sapiens) (UniProt P05129); assay: Inhibition of PKCgamma at 10 uM
[46] = biological target: Protein kinase C beta type (Homo sapiens) (UniProt P05771); assay: Inhibition of PKCbeta1 at 10 uM
[47] = biological target: Mitogen-activated protein kinase 3 (Homo sapiens) (UniProt P27361); assay: Inhibition of ERK1 at 10 uM
[48] = Half life in Sprague-Dawley rat at 2 mg/kg, iv; format: ADME, organism-based; design: dose 2 mg/kg, route intravenous; conditions: in vivo
[49] = biological target: Tyrosine-protein kinase Fgr (Homo sapiens) (UniProt P09769); assay: Inhibition of Fgr at 10 uM
[50] = biological target: Fibroblast growth factor receptor 4 (Homo sapiens) (UniProt P22455); assay: Inhibition of FGFR4 at 10 uM
[51] = biological target: MAP kinase-activated protein kinase 5 (Homo sapiens) (UniProt Q8IW41); assay: Inhibition of MAPKAP-K5 at 10 uM
[52] = biological target: Glycogen synthase kinase-3 alpha (Homo sapiens) (UniProt P49840); assay: Inhibition of GSK3-alpha at 10 uM
[53] = biological target: Tyrosine-protein kinase BTK (Homo sapiens) (UniProt Q06187); assay: Inhibition of Btk at 10 uM
[54] = biological target: RAC-alpha serine/threonine-protein kinase (Homo sapiens) (UniProt P31749); assay: Inhibition of Atk1 at 10 uM
[55] = biological target: Fibroblast growth factor receptor 3 (Homo sapiens) (UniProt P22607); assay: Inhibition of FGFR3 at 10 uM
[56] = biological target: Receptor-type tyrosine-protein kinase FLT3 (Homo sapiens) (UniProt P36888); assay: Inhibition of Flt3 at 10 uM
[57] = biological target: Ephrin type-A receptor 3 (Homo sapiens) (UniProt P29320); assay: Inhibition of EphA3 at 10 uM

Mitogen-activated protein kinase 14, sequence (Q16539 whole entry): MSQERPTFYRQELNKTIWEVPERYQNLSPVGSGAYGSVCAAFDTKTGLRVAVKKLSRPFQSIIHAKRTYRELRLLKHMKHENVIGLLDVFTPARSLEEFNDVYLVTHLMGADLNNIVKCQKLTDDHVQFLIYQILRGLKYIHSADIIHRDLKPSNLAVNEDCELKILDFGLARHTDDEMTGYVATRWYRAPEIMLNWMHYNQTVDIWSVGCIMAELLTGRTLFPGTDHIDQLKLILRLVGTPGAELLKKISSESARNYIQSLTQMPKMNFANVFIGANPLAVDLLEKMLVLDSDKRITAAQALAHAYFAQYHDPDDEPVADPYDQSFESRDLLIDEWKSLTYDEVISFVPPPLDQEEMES
Protein kinase C beta type (Homo sapiens), sequence (P05771 2-671 limits assumed): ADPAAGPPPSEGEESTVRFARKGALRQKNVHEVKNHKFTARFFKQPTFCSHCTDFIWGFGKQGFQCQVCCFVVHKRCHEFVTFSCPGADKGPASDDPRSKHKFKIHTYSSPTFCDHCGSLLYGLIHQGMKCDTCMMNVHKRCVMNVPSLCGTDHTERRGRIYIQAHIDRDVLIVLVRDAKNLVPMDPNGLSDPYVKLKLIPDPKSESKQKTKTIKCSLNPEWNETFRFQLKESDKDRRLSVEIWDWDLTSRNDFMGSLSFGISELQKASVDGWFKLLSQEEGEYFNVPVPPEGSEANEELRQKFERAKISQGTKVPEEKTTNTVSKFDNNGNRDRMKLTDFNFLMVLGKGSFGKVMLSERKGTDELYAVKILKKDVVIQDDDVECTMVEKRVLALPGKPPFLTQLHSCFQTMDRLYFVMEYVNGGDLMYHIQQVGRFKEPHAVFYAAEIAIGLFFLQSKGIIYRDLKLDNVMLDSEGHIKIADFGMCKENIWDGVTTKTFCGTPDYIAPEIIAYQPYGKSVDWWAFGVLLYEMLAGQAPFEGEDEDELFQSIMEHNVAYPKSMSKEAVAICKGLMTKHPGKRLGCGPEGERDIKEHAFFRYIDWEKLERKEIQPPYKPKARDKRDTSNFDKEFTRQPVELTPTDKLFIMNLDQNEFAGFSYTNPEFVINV
Tyrosine-protein kinase Lyn (Homo sapiens), sequence (P07948 2-512 limits assumed): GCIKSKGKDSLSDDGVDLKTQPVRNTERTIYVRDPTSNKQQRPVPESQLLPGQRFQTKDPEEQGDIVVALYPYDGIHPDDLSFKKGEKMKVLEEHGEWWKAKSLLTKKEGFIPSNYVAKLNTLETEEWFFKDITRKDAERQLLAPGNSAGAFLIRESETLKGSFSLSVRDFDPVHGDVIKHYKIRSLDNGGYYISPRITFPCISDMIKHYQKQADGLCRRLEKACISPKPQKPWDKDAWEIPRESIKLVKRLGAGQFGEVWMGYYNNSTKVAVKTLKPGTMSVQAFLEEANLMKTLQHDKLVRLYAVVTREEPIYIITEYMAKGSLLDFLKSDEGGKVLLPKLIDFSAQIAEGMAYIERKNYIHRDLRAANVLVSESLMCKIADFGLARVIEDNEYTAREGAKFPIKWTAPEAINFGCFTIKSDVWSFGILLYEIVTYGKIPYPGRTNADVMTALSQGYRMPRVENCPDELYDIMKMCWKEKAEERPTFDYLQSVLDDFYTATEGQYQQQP
Protein-tyrosine kinase 6 (Homo sapiens), sequence (Q13882 whole entry, looked up): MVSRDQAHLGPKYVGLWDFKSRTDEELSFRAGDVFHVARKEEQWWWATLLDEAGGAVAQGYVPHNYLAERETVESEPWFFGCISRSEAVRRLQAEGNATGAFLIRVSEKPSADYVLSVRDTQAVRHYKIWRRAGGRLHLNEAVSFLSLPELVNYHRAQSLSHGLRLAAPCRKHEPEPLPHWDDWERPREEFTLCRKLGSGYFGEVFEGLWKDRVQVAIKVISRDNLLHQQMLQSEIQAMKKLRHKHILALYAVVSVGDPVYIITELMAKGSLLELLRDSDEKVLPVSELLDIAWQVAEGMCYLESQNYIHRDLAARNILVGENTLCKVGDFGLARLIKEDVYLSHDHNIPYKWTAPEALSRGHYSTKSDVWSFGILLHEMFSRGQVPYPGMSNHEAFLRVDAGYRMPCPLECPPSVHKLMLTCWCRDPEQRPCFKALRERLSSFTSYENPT
Proto-oncogene tyrosine-protein kinase Src (Homo sapiens), sequence (P12931 2-536 limits assumed): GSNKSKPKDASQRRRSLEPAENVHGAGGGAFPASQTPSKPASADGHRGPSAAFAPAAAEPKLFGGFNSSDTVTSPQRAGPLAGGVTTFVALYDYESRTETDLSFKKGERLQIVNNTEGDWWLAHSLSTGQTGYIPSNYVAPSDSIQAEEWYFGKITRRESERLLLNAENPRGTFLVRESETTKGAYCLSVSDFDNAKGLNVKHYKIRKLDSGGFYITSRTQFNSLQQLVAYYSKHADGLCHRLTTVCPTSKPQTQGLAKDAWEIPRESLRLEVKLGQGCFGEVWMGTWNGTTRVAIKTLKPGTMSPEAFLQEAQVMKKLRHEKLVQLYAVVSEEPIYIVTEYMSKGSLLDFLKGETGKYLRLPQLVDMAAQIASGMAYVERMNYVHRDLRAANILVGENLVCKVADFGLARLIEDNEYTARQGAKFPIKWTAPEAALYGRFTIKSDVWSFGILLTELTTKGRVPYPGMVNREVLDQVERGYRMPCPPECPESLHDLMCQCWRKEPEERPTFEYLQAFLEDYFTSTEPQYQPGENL
Glycogen synthase kinase-3 alpha (Homo sapiens), sequence (P49840 2-483 limits assumed): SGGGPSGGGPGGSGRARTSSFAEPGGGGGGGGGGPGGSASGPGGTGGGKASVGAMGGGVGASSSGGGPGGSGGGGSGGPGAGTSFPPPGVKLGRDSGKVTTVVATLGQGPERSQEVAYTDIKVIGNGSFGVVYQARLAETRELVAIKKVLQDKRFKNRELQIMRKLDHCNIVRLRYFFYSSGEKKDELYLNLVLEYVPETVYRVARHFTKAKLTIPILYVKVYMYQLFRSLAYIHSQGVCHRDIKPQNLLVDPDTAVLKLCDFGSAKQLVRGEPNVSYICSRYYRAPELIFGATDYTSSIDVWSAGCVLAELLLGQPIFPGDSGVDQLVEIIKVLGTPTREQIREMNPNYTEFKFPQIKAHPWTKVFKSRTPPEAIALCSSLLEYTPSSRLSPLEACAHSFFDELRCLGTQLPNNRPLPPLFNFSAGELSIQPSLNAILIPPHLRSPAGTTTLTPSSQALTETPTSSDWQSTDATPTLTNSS
Tyrosine-protein kinase ABL1 (Homo sapiens), sequence (P00519 whole entry, canonical isoform): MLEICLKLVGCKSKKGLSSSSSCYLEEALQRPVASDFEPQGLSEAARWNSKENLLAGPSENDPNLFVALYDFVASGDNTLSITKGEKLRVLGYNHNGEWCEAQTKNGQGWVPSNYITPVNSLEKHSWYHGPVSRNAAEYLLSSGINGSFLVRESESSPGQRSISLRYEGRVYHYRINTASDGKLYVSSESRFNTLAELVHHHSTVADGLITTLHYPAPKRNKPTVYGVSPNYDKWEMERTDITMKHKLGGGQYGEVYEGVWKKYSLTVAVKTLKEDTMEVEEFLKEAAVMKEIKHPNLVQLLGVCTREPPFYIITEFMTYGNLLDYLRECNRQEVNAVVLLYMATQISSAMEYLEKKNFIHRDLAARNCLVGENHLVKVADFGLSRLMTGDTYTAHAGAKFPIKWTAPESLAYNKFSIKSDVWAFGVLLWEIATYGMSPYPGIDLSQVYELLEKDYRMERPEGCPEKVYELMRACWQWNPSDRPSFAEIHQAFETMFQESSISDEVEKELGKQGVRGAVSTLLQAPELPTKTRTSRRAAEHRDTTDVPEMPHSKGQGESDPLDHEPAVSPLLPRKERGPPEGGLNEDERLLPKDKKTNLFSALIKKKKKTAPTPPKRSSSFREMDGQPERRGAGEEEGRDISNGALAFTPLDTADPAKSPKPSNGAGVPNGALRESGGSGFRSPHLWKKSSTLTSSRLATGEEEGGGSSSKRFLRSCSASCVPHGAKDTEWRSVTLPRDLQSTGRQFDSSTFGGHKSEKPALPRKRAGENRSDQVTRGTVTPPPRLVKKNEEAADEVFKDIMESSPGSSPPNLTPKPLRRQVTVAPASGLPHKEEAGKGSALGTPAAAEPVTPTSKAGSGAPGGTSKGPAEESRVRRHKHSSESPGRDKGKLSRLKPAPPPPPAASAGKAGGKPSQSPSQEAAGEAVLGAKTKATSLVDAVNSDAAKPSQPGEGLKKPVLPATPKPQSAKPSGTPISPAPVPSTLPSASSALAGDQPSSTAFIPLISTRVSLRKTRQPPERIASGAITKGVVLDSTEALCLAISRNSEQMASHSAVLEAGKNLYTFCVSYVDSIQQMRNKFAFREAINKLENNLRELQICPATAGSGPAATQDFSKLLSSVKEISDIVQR

- IC50 [1]: > 1000 nM
Structure (SMILES): Cc1ccc(-n2nccc2-c2ccc3nc(NC(C)C)sc3c2)cc1

- IC50 [1]: 175 nM
Structure (SMILES): CC(C)Nc1nc2ccc(-c3ccnn3-c3ccccc3Cl)cc2s1

- IC50 [1]: 33 nM
Structure (SMILES): Cc1cccc(-n2nccc2-c2ccc3nc(NC(C)C)sc3c2)c1
- IC50 [2]: 171 nM

- IC50 [1]: 33 nM
Structure (SMILES): CC(C)Nc1nc2ccc(-c3ccnn3-c3cccc(F)c3)cc2s1
- IC50 [2]: 171 nM

- IC50 [1]: 146 nM
Structure (SMILES): Cc1ccccc1-n1nccc1-c1ccc2nc(NC(C)C)sc2c1

- IC50 [1]: 21 nM
Structure (SMILES): CC(C)Nc1nc2ccc(-c3ccnn3-c3ccccc3)cc2s1
- IC50 [2]: 213 nM

- IC50 [1]: 20 nM
Structure (SMILES): CC(C)Nc1nc2ccc(-c3ccnn3-c3ccccc3F)cc2s1
- IC50 [2]: 249 nM

- IC50 [1]: > 1000 nM
Structure (SMILES): CC(C)Nc1nc2ccc(-c3ccnn3-c3ccc(Cl)cc3)cc2s1

- IC50 [1]: 72 nM
Structure (SMILES): CC(C)Nc1nc2ccc(-c3ccnn3-c3cccc(Cl)c3)cc2s1
- IC50 [2]: 232 nM

- IC50 [1]: 48 nM
Structure (SMILES): CC(C)Nc1nc2ccc(-c3ccnn3-c3ccc(F)cc3)cc2s1
- IC50 [2]: > 250 nM

Second part, the compound before the results:

Structure (SMILES): CC[C@@H](C)Nc1nc2ccc(-c3c(-c4ccccc4F)nn(CC)c3N)cc2s1
- IC50 [1]: 17 nM
- IC50 [2]: > 250 nM

Structure (SMILES): CC(C)Nc1nc2ccc(-c3c(-c4ccccc4F)n[nH]c3N)cc2s1
- IC50 [1]: 3.7 nM
- IC50 [2]: 51 nM

Structure (SMILES): CC[C@@H](C)Nc1nc2ccc(-c3[nH]cnc3-c3ccccc3F)cc2s1
- IC50 [1]: 1.6 nM
- IC50 [2]: 13 nM

Structure (SMILES): CC[C@@H](C)Nc1nc2ccc(-c3c(-c4ccccc4F)nn(C)c3N)cc2s1
- IC50 [1]: 11 nM
- IC50 [2]: 118 nM

Structure (SMILES): Fc1ccccc1-c1ncoc1-c1ccc2ncsc2c1
- IC50 [1]: 47 nM
- IC50 [2]: > 250 nM

Structure (SMILES): CC[C@H](C)Nc1nc2ccc(-c3[nH]cnc3-c3ccccc3F)cc2s1
- IC50 [1]: 2.7 nM
- IC50 [2]: 20 nM

Structure (SMILES): CC(C)Nc1nc2ccc(-c3ocnc3-c3ccccc3F)cc2s1
- IC50 [2]: 40 nM

Structure (SMILES): CC[C@H](C)Nc1nc2ccc(-c3c(-c4ccccc4F)n[nH]c3N)cc2s1
- IC50 [1]: 5.5 nM
- IC50 [2]: 77 nM

Structure (SMILES): CC(C)Nc1nc2ccc(-c3ocnc3-c3ccccc3)cc2s1
- IC50 [1]: 21 nM
- IC50 [2]: 96 nM

Structure (SMILES): CC[C@@H](C)Nc1nc2ccc(-c3ocnc3-c3ccccc3F)cc2s1
- IC50 [1]: 6.5 nM
- IC50 [2]: 27 nM

Structure (SMILES): Nc1nc2ccc(-c3ocnc3-c3ccccc3F)cc2s1
- IC50 [1]: 16 nM
- IC50 [2]: 247 nM

Structure (SMILES): CC(C)Nc1nc2ccc(-c3[nH]cnc3-c3ccccc3)cc2s1
- IC50 [1]: 7.1 nM
- IC50 [2]: 107 nM

Structure (SMILES): CC[C@@H](C)Nc1nc2ccc(-c3c(-c4ccccc4F)n[nH]c3N)cc2s1
- inhibition [3]: < 20%
- inhibition [4]: < 20%
- inhibition [5]: 65%
- inhibition [6]: < 20%
- inhibition [7]: < 20%
- bioavailability [8]: 24%
- inhibition [9]: < 20%
- inhibition [10]: < 20%
- inhibition [11]: < 20%
- clearance [12]: 23.3 mL/min/kg
- inhibition [13]: < 20%
- inhibition [14]: < 20%
- inhibition [15]: < 20%
- inhibition [16]: < 20%
- inhibition [17]: < 20%
- inhibition [18]: < 20%
- inhibition [19]: < 20%
- inhibition [20]: < 20%
- inhibition [21]: < 20%
- inhibition [22]: < 20%
- inhibition [23]: < 20%
- inhibition [24]: < 20%
- inhibition [25]: < 20%
- AUC [26]: 2.27 µM·h
- inhibition [27]: < 20%
- inhibition [28]: < 20%
- inhibition [29]: < 20%
- inhibition [30]: < 20%
- inhibition [31]: < 20%
- inhibition [32]: < 20%
- inhibition [33]: < 20%
- inhibition [34]: < 20%
- inhibition [35]: < 20%
- IC50 [1]: 3.2 nM
- inhibition [36]: < 20%
- inhibition [37]: < 20%
- inhibition [38]: < 20%
- inhibition [39]: < 20%
- inhibition [40]: < 20%
- inhibition [41]: < 20%
- inhibition [42]: < 20%
- inhibition [43]: < 20%
- inhibition [44]: < 20%
- inhibition [45]: < 20%
- IC50 [2]: 39 nM
- inhibition [46]: < 20%
- inhibition [47]: < 20%
- half-life [48]: 102 min
- inhibition [49]: 54%
- inhibition [50]: < 20%
- inhibition [51]: < 20%
- inhibition [52]: < 20%
- inhibition [53]: < 20%
- inhibition [54]: < 20%
- inhibition [55]: < 20%
- inhibition [56]: 68%
- inhibition [57]: < 20%

Structure (SMILES): CCNc1nc2ccc(-c3ocnc3-c3ccccc3F)cc2s1
- IC50 [1]: 12 nM
- IC50 [2]: 167 nM

Structure (SMILES): CC(C)Nc1nc2ccc(-c3[nH]cnc3-c3ccccc3F)cc2s1
- IC50 [1]: 3.3 nM
- IC50 [2]: 35 nM

Structure (SMILES): CC[C@H](C)Nc1nc2ccc(-c3ocnc3-c3ccccc3F)cc2s1
- IC50 [1]: 10 nM
- IC50 [2]: 30 nM
